Assay results from patent US6638938B1, “Method for preventing tissue injury from hypoxia” (Cell Therapeutics, Inc., priority 1993, dated 2003).

Tests used:
[1] = test system: lungs of mice subjected to hemorrhage and resuscitation; test: lung histology in murine hemorrhage and resuscitation model; type: in vivo, Balb/C mice
Method: (§1) This example illustrates a study of Lisofylline in a murine hemorrhage and resuscitation model. Male Balb/C mice, 8-12 weeks of age, were obtained from Harlan-Sprague Dawley (Indianapolis, Ind.). The animals were kept on a 12 hour light/dark cycle with free access to food and water. With this model, 30% of the calculated blood volume (approximately 0.55 ml for a 20 gram mouse) was withdrawn from a methoxyflurane anesthetized mouse by cardiac puncture over a 60-second period. The blood was collected into a heparinized syringe (5 units heparin), kept at 37° C. for one hour, then reinfused into the mouse through a retroorbital plexus injection. Using this method, one is able to resuscitate all hemorrhaged mice without complication. The total period of methoxyflurane anesthesia is less than 2 minutes in all cases. The mortality rate with this hemorrhage protocol is approximately 12%, with all deaths occurring over the 24 hours post hemorrhage, and most deaths occurring within the one hour post hemorrhage.
(§2) Mice were treated with 100 mg/kg Lisofylline in 0.2 ml PBS and given initially i.v., by retroorbital injection, then i.p. every 8 hours for a total of 9 doses. In hemorrhaged mice, the Lisofylline in PBS was added to the shed blood, and then given retroorbitally with the blood during the resuscitation phase. In hemorrhaged Balb/C mice (n=3), sacrificed by exsanguination 5 minutes after receiving Lisofylline with the blood used for resuscitation, serum levels of Lisofylline were 44±6 μg/ml.
At 3 days following hemorrhage and resuscitation or the initiation of Lisofylline treatment, mice were sacrificed and the pulmonary circulation flushed with chilled PBS injected into the right ventricle, as described above. The left lower lobe of the lungs was placed into formalin. Hematoxylin and eosin sections of the lungs were prepared, and examined in a blinded fashion by a pulmonary pathologist who was unaware of the group to which the individual animal belonged. Lungs from normal, unmanipulated Balb/C mice also were included as additional controls. The histopathologic findings were scored on a 0 to 3 scale (with 0 being normal and 3 being the most severe change) for the following variables: a) neutrophil infiltration into the pulmonary interstitium; b) intraaveolar hemorrhage; and c) interstitial edema.
Groups of 6 to 8 mice were used for each condition. For each experimental condition, the whole group of animals was prepared and then studied at the same time. Cells, mRNA, BAL supernatants, and plasma were obtained individually from eachanimal, and then were analyzed individually before calculating group data. Data are presented as mean±standard error of the mean (SEM) for each experimental group. One-way analysis of variance and the Student Newman Keuls test were used for comparisons between normal, nominal treated, hemorrhage/treated and hemorrhage data groups. A P value of less than 0.05 was considered significant.

[2] = test system: neutrophils in lung lavages; test: lung lavage neutrophils of intact rats given IL-1 intratracheally; type: in vivo, Sprague-Dawley rats
Method: Interleukin-1α (IL-1) and Lisofylline administration in Male Sprague-Dawley rats weighing 300-350 g (Sasco, Omaha, Neb.) were fed a normal diet and acclimated to altitude (Denver, Colo.) for at least 14 days before study. Rats were anesthetized with ketamine (90 mg/kg) and zylazine (7 mg/kg) intraperitoneally and then supplemented as needed with ketamine and zylazine and kept on a warming blanket. The trachea was cannulated with an indwelling 15 gauge stub adaptor tube. After 5 ventilated breaths (Harvard Apparatus Co., Millis, Mass.), IL-1 (0.5 ml, 50 ng) in sterile, endotoxin-free saline, was rapidly instilled intratracheally with a syringe, followed by another 5 ventilated breaths. Sham treated rats received identical anesthesia and surgery but were injected only with sterile saline intratracheally. […]
Saline (3.0 ml×2) was slowly injected intratracheally and then withdrawn. Recovered lavage fluid was quantitated and centrifuged for 5 min and the cell pellet resuspended in 1.0 ml of lavage. Total cells were counted in a hemocytometer and a cytospin preparation (Shandon Southern Products Ltd, Cheshire, England) Wright-stained and examined to determine the percentages of neutrophils.

IFN-γ = IFN-γ sandwich ELISA of BAL supernatants and plasma; type: in vivo, Balb/C mice
Method: as §1, §2
Three days following hemorrhage and resuscitation or the initiation of treatment with Lisofylline therapy in normal treated animals, mice were anesthetized with methoxyflurane and sacrificed by exsanguination through cardiac puncture into a heparinized (5 U) syringe. Normal mice, not subjected to hemorrhage/resuscitation or to treatment with Lisofylline, were included. Bronchoalveolar lavage (BAL) specimens, using 1.0 ml PBS injected and aspirated three times into the trachea and lungs, were obtained. Cells contained in the BAL were collected by centrifugation of BAL specimens. […] As determined by cytology, there was less than 3% contamination of alveolar macrophages with lymphocytes, neutrophils, or other mononuclear cell populations when BAL specimens are collected in normal Balb/C mice, but approximately 11±2% of isolated cells are neutrophils in mice subjected 3 days previously to 30% blood volume hemorrhage with resuscitation one hour later. […]
TNFα and IFN-γconcentrations in BAL supernatants and plasma were determined with sandwich ELISA assays using the monoclonal antibody pairs (i.e., unbiotinylated or biotinylated) MP6-XT3 for TNFα and XMG1.2 for IFN-γ(Pharmingen San Diego, Calif.). […]

TNFα = test: immunohistochemical staining of lung samples for TNFα; type: in vivo; conditions: hemorrhaged/resuscitated mice or normal mice treated
Excerpt: In sections from mice subjected to hemorrhage and resuscitation 3 days previously, staining for TNFα was present, particularly in the perivascular areas.

[3] = hemorrhaged/resuscitated mice, 100 mg/kg every 8 hours, 9 doses, 3 days, not significantly different from normal
[4] = hemorrhaged/resuscitated mice treated for 72 hours
[5] = normal, unhemorrhaged mice treated

With `C[C@@H](O)CCCCn1c(=O)c2c(ncn2C)n(C)c1=O` [Lisofylline, 1-R-(5-hydroxyhexyl)-3,7-dimethylxanthine] the “number of neutrophils in the pulmonary interstitium” value ([1]; hemorrhaged mice treated, versus hemorrhaged/resuscitated untreated, 3 days) was “significantly decreased”, the “degree of interstitial edema” value [1, 3] was “minimal” and the “degree of intraaveolar hemorrhage” value [1, 3] was “minimal”. The “number of neutrophils in the lungs” value ([1]; normal mice treated, versus normal untreated) was “significantly increased”, the lung injury ([1]; rodent model of hemorrhage and reperfusion) was “completely prevented” and the “Total Lavage PMNs” value ([2]; IL-1 + Lisofylline (100 μg/kg)) was 3.64 ± 0.84 (9)δ number × 10^6. For the same compound, the “Total Lavage PMNs” value ([2]; Sham + Lisofylline (100 μg/kg)) was 0.42 ± 0.14 (8)δ number × 10^6, the “IFN-γ levels in BAL supernatants” value (IFN-γ; [4]) was 2 ± 2 pg/mL and the “IFN-γ levels in plasma” value (IFN-γ; [4]) was 173 ± 120 pg/mL. The “IFN-γ content of BAL supernatants” value (IFN-γ; [5]) was 16 ± 16 pg/mL, the IFN-γ in plasma (IFN-γ; [5]) was 66 ± 48 pg/mL and the “immunohistochemical staining of lung for TNFα” value (TNFα) was “no signal”.
